Values of other authors, collected in US10188676B2, “Anti-inflammatory solution” (Hypo-Stream Limited, priority 2013, dated 2019).

Tested on: alveolar osteitis (AO)
Conditions: 0.2% solution or gel, surgical site irrigation

**Q.** Which “effectiveness against alveolar osteitis” value does the source give for `[H]/N=C(\N/C(=N/[H])NCCCCCCNC(=N)NC(=N)Nc1ccc(Cl)cc1)Nc1ccc(Cl)cc1` [chlorhexidine] here?
**A.** Its value is “Neither report found evidence of effectiveness”.
